Structures are written as SMILES.

For the assay, the target named is T1, SIRT1 (Homo sapiens, UniProt Q96EB6).
T1 sequence (Q96EB6 1-747): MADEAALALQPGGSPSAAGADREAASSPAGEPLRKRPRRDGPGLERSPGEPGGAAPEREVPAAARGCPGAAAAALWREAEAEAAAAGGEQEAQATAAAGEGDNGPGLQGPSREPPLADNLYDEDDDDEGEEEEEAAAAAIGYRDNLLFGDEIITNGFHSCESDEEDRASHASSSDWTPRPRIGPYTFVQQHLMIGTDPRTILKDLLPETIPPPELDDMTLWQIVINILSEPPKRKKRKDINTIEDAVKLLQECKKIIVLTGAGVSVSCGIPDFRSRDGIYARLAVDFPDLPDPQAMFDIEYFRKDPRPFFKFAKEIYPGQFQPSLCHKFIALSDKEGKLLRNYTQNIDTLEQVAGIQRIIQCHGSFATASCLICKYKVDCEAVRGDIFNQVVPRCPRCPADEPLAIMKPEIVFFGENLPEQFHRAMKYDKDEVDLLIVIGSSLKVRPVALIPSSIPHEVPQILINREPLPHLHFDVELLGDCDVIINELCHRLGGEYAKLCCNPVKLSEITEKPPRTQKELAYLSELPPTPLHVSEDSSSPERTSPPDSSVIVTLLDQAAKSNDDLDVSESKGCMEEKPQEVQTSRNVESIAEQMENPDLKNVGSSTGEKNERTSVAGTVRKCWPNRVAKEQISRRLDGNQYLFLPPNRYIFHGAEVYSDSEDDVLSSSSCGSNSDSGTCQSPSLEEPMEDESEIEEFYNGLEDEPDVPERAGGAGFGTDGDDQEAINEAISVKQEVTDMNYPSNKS
As to the kind of experiment: Mass spectrometry based assay to identify modulators of SIRT1 activity (deacetylation of p53-based acetylated peptide substrate). It is filed as biochemical. The conditions noted are these: for Emax: 25 min, read-out: % FOLD ACT. (percent maximum fold activation); for Emax / EC1.5: SIRT1 activation. The text has this: A mass spectrometry based assay was used to identify modulators of SIRT1 activity. The mass spectrometry based assay utilizes a peptide having 20 amino acid residues as follows: Ac-EE-K(biotin)-GQSTSSHSK(Ac)NleSTEG-K(5TMR)-EE-NH2 (SEQ ID NO: 1) wherein K(Ac) is an acetylated lysine residue and Nle is a norleucine. The peptide is labeled with the fluorophore 5TMR (excitation 540 nm/emission 580 nm) at the C-terminus. The sequence of the peptide substrate is based on p53 with several modifications. In addition, the methionine residue naturally present in the sequence was replaced with the norleucine because the methionine may be susceptible to oxidation during synthesis and purification.
The mass spectrometry assay is conducted as follows: […] peptide substrate and 120 μM βNAD^+ is incubated with 10 nM SIRT1 for 25 minutes at 25° C. in a reaction buffer (50 mM Tris-acetate pH 8, 137 mM NaCl, 2.7 mM KCl, 1 mM MgCl2, 5 mM DTT, 0.05% BSA). Test compounds may be added to the reaction as described above. The SirT1 gene is cloned into a T7-promoter containing vector and transformed into BL21(DE3). After the 25 minute incubation with SIRT1, 10 μL of 10% formic acid is added to stop the reaction. Reactions are sealed and frozen for later mass spec analysis. Determination of the mass of the substrate peptide allows for precise determination of the degree of acetylation (i.e. starting material) as compared to deacetylated peptide (product).
A control for inhibition of sirtuin activity is conducted by adding 1 μL of 500 mM nicotinamide as a negative control at the start of the reaction (e.g., permits determination of maximum sirtuin inhibition). A control for activation of sirtuin activity is conducted using 10 nM of sirtuin protein, with 1 μL of DMSO in place of compound, to determine the amount of deacetylation of the substrate at a given timepoint within the linear range of the assay. This timepoint is the same as that used for test compounds and, within the linear range, the endpoint represents a change in velocity.
For the above assay, SIRT1 protein was expressed and purified as follows. The SirT1 gene was cloned into a T7-promoter containing vector and transformed into BL21(DE3). The protein was expressed by induction with 1 mM IPTG as an N-terminal His-tag fusion protein at 18° C. overnight and harvested at 30,000×g. Cells were lysed with lysozyme in lysis buffer (50 mM Tris-HCl, 2 mM Tris[2-carboxyethyl]phosphine (TCEP), 10 μM ZnCl2, 200 mM NaCl) and further treated with sonication for 10 min for complete lysis. The protein was purified over a Ni-NTA column (Amersham) and fractions containing pure protein were pooled, concentrated and run over a sizing column (Sephadex S200 26/60 global). The peak containing soluble protein was collected and run on an Ion-exchange column (MonoQ). Gradient elution (200 mM-500 mM NaCl) yielded pure protein. This protein was concentrated and dialyzed against dialysis buffer (20 mM Tris-HCl, 2 mM TCEP) overnight. The protein was aliquoted and frozen at −80° C. until further use.

As to `Cc1csc(NC(=O)N2CCOc3cnc(-c4cccc(C(F)(F)F)c4)nc32)n1` [Compound 709, N-(4-methylthiazol-2-yl)-2-(3-(trifluoromethyl)phenyl)-6H-pyrimido[5,4-b][1,4]oxazine-8(7H)-carboxamide], the EC1.5 (concentration giving 1.5-fold activation) was over 25 µM and the Emax is at most 200%.
Take `Cn1ccc(NC(=O)N2CCCOc3ccc(-c4cccc(Cl)c4)nc32)n1` [Compound 705]: the EC1.5 (concentration giving 1.5-fold activation) fell in the range of 1 to 25 µM and the Emax is over 200%.
As for `CN(C)c1nc(-c2cccc(F)c2)nc2c1OCCN2C(=O)Nc1ccncn1` [Compound 757], the EC1.5 (concentration giving 1.5-fold activation) is over 25 µM and the Emax is at most 200%.
With `O=C(Nc1ccncc1)N1CCOc2cnc(-c3cccc(N4CCOCC4)c3)nc21` [Compound 721], the EC1.5 (concentration giving 1.5-fold activation) lay within 1 to 25 µM and the Emax is over 200%.
`O=C(Nc1c(F)c(F)c(F)c(F)c1F)N1CCCOc2ccc(-c3cccc(C(F)(F)F)c3)nc21` [Compound 693]: the Emax was at most 200% and the EC1.5 result is recorded as “C (EC1.5>25 μM)”.
For `O=C(Nc1ncccc1F)N1CCC(F)(F)c2ccc(-c3cccc(C(F)(F)F)c3)nc21` [Compound 822], the EC1.5 (concentration giving 1.5-fold activation) was in the range of 1 to 25 µM and the Emax was at most 200%.
On to `CCN1C(=O)CCN(C(=O)Nc2ccccn2)c2nc(-c3cccc(Cl)c3)ccc21` [Compound 765, 7-(3-chlorophenyl)-1-ethyl-2-oxo-N-(pyridin-2-yl)-3,4-dihydro-1H-pyrido[2,3-b][1,4]diazepine-5(2H)-carboxamide], for which the EC1.5 (concentration giving 1.5-fold activation) was over 25 µM and the Emax is at most 200%.
As to `O=C1CCCN(C(=O)Nc2ccncc2F)c2nc(-c3cccc(C(F)(F)F)c3)ccc21` [Compound 821], the EC1.5 (concentration giving 1.5-fold activation) lay within 1 to 25 µM and the Emax is over 200%.
For `Cc1cc(OCC(O)CO)nc(NC(=O)N2CCC(F)(F)c3ccc(-c4cccc(C(F)(F)F)c4)nc32)n1` (stereo not drawn) [Compound 824] the same measures were 1 to 25 µM and at most 200%.
In the case of `Cc1cc(-c2cccc(Cl)c2)nc2c1OCCN2C(=O)Nc1ccncn1` [Compound 685], the Emax was over 200% and the EC1.5 entry is given as “A (EC1.5<1.0 μM)”.
On to `O=C(Nc1ccncc1)N1CCCCc2ccc(-c3cccc(C(F)(F)F)c3)nc21` [Compound 810], for which the EC1.5 (concentration giving 1.5-fold activation) lay in the range of 1 to 25 µM and the Emax is over 200%.
On to `O=C(Nc1cnccn1)N1CCCOc2ccc(-c3cccc(Cl)c3)nc21` [Compound 866], for which the EC1.5 (concentration giving 1.5-fold activation) lay within 1 to 25 µM and the Emax was over 200%.
As to `O=C1CCCN(C(=O)Nc2ccncc2)c2nc(-c3cccc(Cl)c3)ccc21` [Compound 756], the EC1.5 (concentration giving 1.5-fold activation) was 1 to 25 µM and the Emax is over 200%.
For `Cc1csc(NC(=O)N2CCOc3ncc(-c4cccc(C(F)(F)F)c4)nc32)n1` [Compound 740, N-(4-methylthiazol-2-yl)-6-(3-(trifluoromethyl)phenyl)-2H-pyrazino[2,3-b][1,4]oxazine-4(3H)-carboxamide] the same measures were over 25 µM and at most 200%.
`Cc1cncc(NC(=O)N2CCCOc3ccc(-c4ccnc(C)c4)nc32)c1` [Compound 655]: the Emax is at most 200% and the EC1.5 result is recorded as “B (EC1.5 1-25 μM)”.
`CCN1C(=O)CCN(C(=O)Nc2ccncc2F)c2nc(-c3cccc(Cl)c3)ccc21` [Compound 774]: the EC1.5 (concentration giving 1.5-fold activation) was over 25 µM and the Emax was at most 200%.
Regarding `CC1CCN(C(=O)Nc2cncnc2)c2nc(-c3cccc(C(F)(F)F)c3)ccc21` (stereo not drawn) [Compound 802], the EC1.5 (concentration giving 1.5-fold activation) is under 1 µM and the Emax was over 200%.
With `O=C(Nc1ccncc1)N1CCCOc2ccc(-c3cccc(F)c3)nc21` [Compound 550], the Emax was over 200% and the EC1.5 entry was “B (EC1.5 1-25 μM)”.

The values above are taken from patent US9556201B2, “Bicyclic pyridines and analogs as sirtuin modulators” (GLAXOSMITHKLINE LLC, priority 2009, dated 2017).
